Columns and labels:
Assay type in all cases: cell-based
[1] = target: von Hippel-Lindau disease tumor suppressor/SWI/SNF-related matrix-associated actin-dependent regulator of chromatin subfamily A member 2 (Homo sapiens, UniProt P40337+P51531); assay: Protac activity at VHL/SMARCA2 in human A549 cells assessed as induction of SMARCA2 bromodomain degradation using rabbit anti-SMARCA2 antibody incubated for 18 hrs by WES capillary electrophoresis
[2] = target: von Hippel-Lindau disease tumor suppressor/SWI/SNF-related matrix-associated actin-dependent regulator of chromatin subfamily A member 2 (Homo sapiens) (UniProt P51531+P40337); assay: Protac activity at VHL/SMARCA2 in human A549 cells assessed as induction of SMARCA2 bromodomain degradation using rabbit anti-SMARCA2 antibody incubated for 18 hrs by WES capillary electrophoresis relative to initial level
[3] = target: von Hippel-Lindau disease tumor suppressor/SWI/SNF-related matrix-associated actin-dependent regulator of chromatin subfamily A member 4 (Homo sapiens, UniProt P40337+P51532); assay: Protac activity at VHL/SMARCA4 in human A549 cells assessed as induction of SMARCA4 bromodomain degradation using anti-SMARCA4 antibody incubated for 18 hrs by WES capillary electrophoresis
[4] = target: von Hippel-Lindau disease tumor suppressor/SWI/SNF-related matrix-associated actin-dependent regulator of chromatin subfamily A member 4 (Homo sapiens) (UniProt P51532+P40337); assay: Protac activity at VHL/SMARCA4 in human A549 cells assessed as induction of SMARCA4 bromodomain degradation using anti-SMARCA4 antibody incubated for 18 hrs by WES capillary electrophoresis relative to initial level
Sequence of von Hippel-Lindau disease tumor suppressor/SWI/SNF-related matrix-associated actin-dependent regulator of chromatin subfamily A member 4 (Homo sapiens) (P40337 whole entry, looked up): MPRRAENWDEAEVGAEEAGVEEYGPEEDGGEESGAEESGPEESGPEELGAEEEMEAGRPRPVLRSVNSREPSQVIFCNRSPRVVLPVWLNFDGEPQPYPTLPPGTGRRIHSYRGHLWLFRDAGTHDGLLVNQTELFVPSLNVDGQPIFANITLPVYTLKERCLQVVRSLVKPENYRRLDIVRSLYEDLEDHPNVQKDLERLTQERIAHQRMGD
Sequence of von Hippel-Lindau disease tumor suppressor/SWI/SNF-related matrix-associated actin-dependent regulator of chromatin subfamily A member 4 (Homo sapiens) (P51532 whole entry, looked up): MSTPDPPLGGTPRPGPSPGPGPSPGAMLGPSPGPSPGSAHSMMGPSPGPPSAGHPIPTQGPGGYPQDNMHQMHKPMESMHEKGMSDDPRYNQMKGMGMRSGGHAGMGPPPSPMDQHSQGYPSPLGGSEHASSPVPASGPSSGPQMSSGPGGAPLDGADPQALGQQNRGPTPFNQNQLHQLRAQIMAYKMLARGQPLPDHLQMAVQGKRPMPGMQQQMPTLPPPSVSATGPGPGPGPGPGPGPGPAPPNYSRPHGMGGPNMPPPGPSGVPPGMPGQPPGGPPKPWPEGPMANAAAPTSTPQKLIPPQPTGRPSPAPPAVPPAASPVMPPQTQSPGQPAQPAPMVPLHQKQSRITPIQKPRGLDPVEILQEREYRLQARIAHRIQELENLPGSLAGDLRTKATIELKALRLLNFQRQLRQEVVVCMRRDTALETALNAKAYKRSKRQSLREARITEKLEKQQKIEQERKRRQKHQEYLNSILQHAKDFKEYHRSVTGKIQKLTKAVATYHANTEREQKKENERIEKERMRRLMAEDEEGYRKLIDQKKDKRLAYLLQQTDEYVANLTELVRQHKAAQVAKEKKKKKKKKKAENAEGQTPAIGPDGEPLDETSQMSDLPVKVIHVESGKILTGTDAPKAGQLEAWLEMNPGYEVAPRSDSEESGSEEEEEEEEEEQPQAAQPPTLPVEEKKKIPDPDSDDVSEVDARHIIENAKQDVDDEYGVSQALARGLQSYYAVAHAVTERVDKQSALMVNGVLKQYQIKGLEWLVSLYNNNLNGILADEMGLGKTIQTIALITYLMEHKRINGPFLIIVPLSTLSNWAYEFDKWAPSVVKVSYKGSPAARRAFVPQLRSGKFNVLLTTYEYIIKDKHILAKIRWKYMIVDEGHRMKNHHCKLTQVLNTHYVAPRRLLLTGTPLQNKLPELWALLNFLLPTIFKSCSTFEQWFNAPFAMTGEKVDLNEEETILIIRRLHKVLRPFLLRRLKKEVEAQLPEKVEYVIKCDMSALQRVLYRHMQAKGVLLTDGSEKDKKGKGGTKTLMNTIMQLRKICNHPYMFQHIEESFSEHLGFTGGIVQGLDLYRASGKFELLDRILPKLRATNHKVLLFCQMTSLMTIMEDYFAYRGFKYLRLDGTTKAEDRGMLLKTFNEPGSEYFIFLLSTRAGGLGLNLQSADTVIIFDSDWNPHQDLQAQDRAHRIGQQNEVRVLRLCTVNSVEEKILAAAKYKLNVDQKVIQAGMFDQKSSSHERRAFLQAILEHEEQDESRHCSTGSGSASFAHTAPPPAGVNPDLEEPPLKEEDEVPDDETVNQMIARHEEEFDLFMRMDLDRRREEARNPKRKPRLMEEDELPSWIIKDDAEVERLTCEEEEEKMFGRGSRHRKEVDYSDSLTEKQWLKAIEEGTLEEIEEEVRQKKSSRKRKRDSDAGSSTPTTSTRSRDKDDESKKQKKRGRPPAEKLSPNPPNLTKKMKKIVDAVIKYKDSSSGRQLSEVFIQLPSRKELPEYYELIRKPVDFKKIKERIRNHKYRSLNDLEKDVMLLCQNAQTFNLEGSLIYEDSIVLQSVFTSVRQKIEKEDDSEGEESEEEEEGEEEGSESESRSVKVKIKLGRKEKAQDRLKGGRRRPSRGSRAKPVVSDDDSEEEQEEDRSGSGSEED

Sequence of von Hippel-Lindau disease tumor suppressor/SWI/SNF-related matrix-associated actin-dependent regulator of chromatin subfamily A member 4 (P51532 whole entry): as the sequence (P51532 whole entry, looked up) above
Sequence of von Hippel-Lindau disease tumor suppressor/SWI/SNF-related matrix-associated actin-dependent regulator of chromatin subfamily A member 4 (P40337 whole entry): as the sequence (P40337 whole entry, looked up) above
Sequence of von Hippel-Lindau disease tumor suppressor/SWI/SNF-related matrix-associated actin-dependent regulator of chromatin subfamily A member 2 (Homo sapiens) (P40337 whole entry, looked up): as above
Sequence of von Hippel-Lindau disease tumor suppressor/SWI/SNF-related matrix-associated actin-dependent regulator of chromatin subfamily A member 2 (Homo sapiens) (P51531 whole entry, looked up): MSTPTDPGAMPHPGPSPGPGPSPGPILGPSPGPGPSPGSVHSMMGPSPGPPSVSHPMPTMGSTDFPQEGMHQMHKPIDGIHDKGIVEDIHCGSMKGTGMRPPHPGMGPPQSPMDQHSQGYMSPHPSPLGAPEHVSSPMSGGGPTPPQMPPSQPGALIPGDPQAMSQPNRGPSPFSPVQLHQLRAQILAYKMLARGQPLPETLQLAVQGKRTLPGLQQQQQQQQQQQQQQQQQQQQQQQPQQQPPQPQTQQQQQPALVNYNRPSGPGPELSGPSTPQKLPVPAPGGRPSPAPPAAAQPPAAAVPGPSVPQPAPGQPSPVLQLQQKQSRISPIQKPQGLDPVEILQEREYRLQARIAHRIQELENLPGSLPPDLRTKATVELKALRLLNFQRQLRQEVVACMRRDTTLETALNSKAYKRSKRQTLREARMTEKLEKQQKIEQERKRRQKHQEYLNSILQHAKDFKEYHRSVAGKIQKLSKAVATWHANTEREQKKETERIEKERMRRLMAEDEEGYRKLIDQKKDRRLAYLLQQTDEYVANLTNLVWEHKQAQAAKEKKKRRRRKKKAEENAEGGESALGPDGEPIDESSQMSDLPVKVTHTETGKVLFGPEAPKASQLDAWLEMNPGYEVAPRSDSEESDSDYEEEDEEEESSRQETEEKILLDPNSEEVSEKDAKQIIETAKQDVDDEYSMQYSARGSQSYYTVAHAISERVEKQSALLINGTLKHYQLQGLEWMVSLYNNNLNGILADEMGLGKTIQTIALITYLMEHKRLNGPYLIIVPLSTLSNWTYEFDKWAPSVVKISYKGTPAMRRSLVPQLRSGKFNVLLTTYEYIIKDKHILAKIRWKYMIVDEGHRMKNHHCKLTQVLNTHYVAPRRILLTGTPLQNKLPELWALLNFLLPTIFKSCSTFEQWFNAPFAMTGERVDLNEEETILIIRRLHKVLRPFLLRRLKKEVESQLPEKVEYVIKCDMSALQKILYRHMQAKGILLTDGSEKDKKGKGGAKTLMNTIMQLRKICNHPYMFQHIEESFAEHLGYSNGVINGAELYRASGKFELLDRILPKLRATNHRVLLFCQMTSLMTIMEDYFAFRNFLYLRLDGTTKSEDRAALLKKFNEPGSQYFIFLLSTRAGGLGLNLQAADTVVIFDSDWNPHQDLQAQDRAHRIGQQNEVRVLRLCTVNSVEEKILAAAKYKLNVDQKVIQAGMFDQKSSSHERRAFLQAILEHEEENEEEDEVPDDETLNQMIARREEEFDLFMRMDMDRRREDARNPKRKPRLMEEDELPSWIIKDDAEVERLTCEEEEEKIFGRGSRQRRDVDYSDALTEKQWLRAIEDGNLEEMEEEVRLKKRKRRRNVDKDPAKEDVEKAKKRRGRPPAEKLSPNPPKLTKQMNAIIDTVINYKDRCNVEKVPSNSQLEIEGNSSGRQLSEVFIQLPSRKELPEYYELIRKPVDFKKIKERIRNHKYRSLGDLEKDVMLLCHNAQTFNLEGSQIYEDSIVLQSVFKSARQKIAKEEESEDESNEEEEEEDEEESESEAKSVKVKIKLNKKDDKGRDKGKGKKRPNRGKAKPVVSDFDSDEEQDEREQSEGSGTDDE
Sequence of von Hippel-Lindau disease tumor suppressor/SWI/SNF-related matrix-associated actin-dependent regulator of chromatin subfamily A member 2 (P51531 whole entry): as the sequence (P51531 whole entry, looked up) above
Sequence of von Hippel-Lindau disease tumor suppressor/SWI/SNF-related matrix-associated actin-dependent regulator of chromatin subfamily A member 2 (P40337 whole entry): as the sequence (P40337 whole entry, looked up) above

Row | Structure (SMILES) | EC50 [1] [nM] | Emax [2] [%] | EC50 [3] [nM] | Emax [4] [%]
1 | Cc1ncsc1-c1ccc(CNC(=O)[C@@H]2C[C@@H](O)CN2C(=O)[C@@H](NC(=O)C2(F)CC2)C(C)(C)C)c(OCCOc2ccc(CN3CCN(c4cc(-c5ccccc5O)nnc4N)CC3)cc2)c1 | 12 | 98 | 16 | 97
2 | Cc1ncsc1-c1ccc(CNC(=O)[C@@H]2C[C@@H](O)CN2C(=O)[C@@H](NC(=O)C2(F)CC2)C(C)(C)C)c(OCCc2ccc(OCCN3CCN(c4cc(-c5ccccc5O)nnc4N)CC3)cc2)c1 | 41 | 99 | 26 | 99
3 | Cc1ncsc1-c1ccc(CNC(=O)[C@@H]2C[C@@H](O)CN2C(=O)[C@@H](NC(=O)C2(F)CC2)C(C)(C)C)c(OCCc2ccc(CN3CCN(c4cc(-c5ccccc5O)nnc4N)CC3)c(F)c2)c1 | 55 | 95 | 33 | 95

Results, then the molecule that gave them:

Row | EC50 [1] [nM] | Emax [2] [%] | EC50 [3] [nM] | Emax [4] [%] | Structure (SMILES)
4 | 58 | 90 | 25 | 92 | Cc1ncsc1-c1ccc(CNC(=O)[C@@H]2C[C@@H](O)CN2C(=O)[C@@H](NC(=O)C2(F)CC2)C(C)(C)C)c(OCCCc2ccc(CN3CCN(c4cc(-c5ccccc5O)nnc4N)CC3)cc2)c1
5 | 26 | 99 | 16 | 100 | Cc1ncsc1-c1ccc(CNC(=O)[C@@H]2C[C@@H](O)CN2C(=O)[C@@H](NC(=O)C2(F)CC2)C(C)(C)C)c(OCCCOc2ccc(CN3CCN(c4cc(-c5ccccc5O)nnc4N)CC3)cc2)c1
6 | 67 | 91 | 117 | 93 | Cc1ncsc1-c1ccc(CNC(=O)[C@@H]2C[C@@H](O)CN2C(=O)[C@@H](NC(=O)C2(F)CC2)C(C)(C)C)c(OCCc2ccc(CN3CCN(c4cc(-c5ccccc5O)nnc4N)CC3)cc2)c1

From ChEMBL document CHEMBL4725421, “SMARCA2/4 PROTAC for Targeted Protein Degradation and Cancer Therapy” (ACS Med Chem Lett, 2020)
